Data taken from PubChem BioAssay (NCI).
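Dose response: 5 concentrations. Exposure: 48 h. Format: 96-well plates. Endpoint: linear interpolation; highest concentration if not reached. GI50: concentration for 50% inhibition of growth. The concentration for full growth arrest is given as TGI.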

What was measured:
Experiment in all cases: NCI-60 cell line screen, 48 h
ACHN renal = tested on: ACHN renal
CAKI-1 renal = tested on: CAKI-1 renal
COLO 205 colon = tested on: COLO 205 colon
DU-145 prostate = tested on: DU-145 prostate
EKVX NSCLC = tested on: EKVX NSCLC
HCC-2998 colon = tested on: HCC-2998 colon
HCT-15 colon = tested on: HCT-15 colon
HOP-92 NSCLC = tested on: HOP-92 NSCLC
K-562 leukemia = tested on: K-562 leukemia
KM12 colon = tested on: KM12 colon
M14 melanoma = tested on: M14 melanoma
MALME-3M melanoma = tested on: MALME-3M melanoma
MDA-MB-231 breast = tested on: MDA-MB-231 breast
MDA-MB-435 = tested on: MDA-MB-435
NCI-H23 lung = tested on: NCI-H23 lung
NCI-H460 lung = tested on: NCI-H460 lung
NCI/ADR-RES ovarian = tested on: NCI/ADR-RES ovarian
OVCAR-3 ovarian = tested on: OVCAR-3 ovarian
OVCAR-4 ovarian = tested on: OVCAR-4 ovarian
OVCAR-5 ovarian = tested on: OVCAR-5 ovarian
OVCAR-8 ovarian = tested on: OVCAR-8 ovarian
PC-3 prostate = tested on: PC-3 prostate
RXF 393 renal = tested on: RXF 393 renal
SF-268 CNS = tested on: SF-268 CNS
SF-295 CNS = tested on: SF-295 CNS
SF-539 CNS = tested on: SF-539 CNS
SK-MEL-28 melanoma = tested on: SK-MEL-28 melanoma
SK-MEL-5 melanoma = tested on: SK-MEL-5 melanoma
SK-OV-3 ovarian = tested on: SK-OV-3 ovarian
SN12C renal = tested on: SN12C renal
SNB-75 CNS = tested on: SNB-75 CNS
SW-620 colon = tested on: SW-620 colon
TK-10 renal = tested on: TK-10 renal
UACC-257 melanoma = tested on: UACC-257 melanoma
UACC-62 melanoma = tested on: UACC-62 melanoma
UO-31 renal = tested on: UO-31 renal
786-0 renal = tested on: 786-0 renal
A498 renal = tested on: A498 renal
A549 NSCLC = tested on: A549 NSCLC
BT-549 breast = tested on: BT-549 breast
CCRF-CEM leukemia = tested on: CCRF-CEM leukemia
HCT-116 colon = tested on: HCT-116 colon
HL-60(TB) leukemia = tested on: HL-60(TB) leukemia
HOP-62 NSCLC = tested on: HOP-62 NSCLC
HS 578T breast = tested on: HS 578T breast
HT29 colon = tested on: HT29 colon
IGROV1 ovarian = tested on: IGROV1 ovarian
LOX IMVI melanoma = tested on: LOX IMVI melanoma
MCF7 breast = tested on: MCF7 breast
MOLT-4 leukemia = tested on: MOLT-4 leukemia
NCI-H226 lung = tested on: NCI-H226 lung
NCI-H522 lung = tested on: NCI-H522 lung
RPMI-8226 leukemia = tested on: RPMI-8226 leukemia
SK-MEL-2 melanoma = tested on: SK-MEL-2 melanoma
SNB-19 CNS = tested on: SNB-19 CNS
SR leukemia = tested on: SR leukemia
T-47D breast = tested on: T-47D breast
U251 CNS = tested on: U251 CNS

COc1ccc(-c2ccc(-c3ccc(C(=N)N)nc3)s2)cc1
GI50 (ACHN renal): 1.84 µM | TGI (ACHN renal): 3.24 µM | GI50 (CAKI-1 renal): 1.64 µM | TGI (CAKI-1 renal): 3 µM | GI50 (COLO 205 colon): 1.89 µM | TGI (COLO 205 colon): 3.92 µM | GI50 (DU-145 prostate): 1.77 µM | TGI (DU-145 prostate): 3.17 µM | GI50 (EKVX NSCLC): 1.7 µM | TGI (EKVX NSCLC): 3.14 µM | GI50 (HCC-2998 colon): 1.82 µM | TGI (HCC-2998 colon): 3.41 µM | GI50 (HCT-15 colon): 1.27 µM | TGI (HCT-15 colon): 2.7 µM | GI50 (HOP-92 NSCLC): 1.5 µM | TGI (HOP-92 NSCLC): 3.07 µM | GI50 (K-562 leukemia): 1.09 µM | TGI (K-562 leukemia): 3.53 µM | GI50 (KM12 colon): 1.81 µM | TGI (KM12 colon): 3.3 µM | GI50 (M14 melanoma): 1.8 µM | TGI (M14 melanoma): 3.35 µM | GI50 (MALME-3M melanoma): 1.84 µM | TGI (MALME-3M melanoma): 3.44 µM | GI50 (MDA-MB-231 breast): 1.75 µM | TGI (MDA-MB-231 breast): 3.28 µM | GI50 (MDA-MB-435): 1.73 µM | TGI (MDA-MB-435): 3.11 µM | GI50 (NCI-H23 lung): 1.84 µM | TGI (NCI-H23 lung): 3.46 µM | GI50 (NCI-H460 lung): 0.524 µM | TGI (NCI-H460 lung): 1.82 µM | GI50 (NCI/ADR-RES ovarian): 1.94 µM | TGI (NCI/ADR-RES ovarian): 3.75 µM | GI50 (OVCAR-3 ovarian): 1.82 µM | TGI (OVCAR-3 ovarian): 3.27 µM | GI50 (OVCAR-4 ovarian): 1.79 µM | TGI (OVCAR-4 ovarian): 3.3 µM | GI50 (OVCAR-5 ovarian): 1.67 µM | TGI (OVCAR-5 ovarian): 3.11 µM | GI50 (OVCAR-8 ovarian): 2.12 µM | TGI (OVCAR-8 ovarian): 4.87 µM | GI50 (PC-3 prostate): 1.68 µM | TGI (PC-3 prostate): 3.31 µM | GI50 (RXF 393 renal): 1.77 µM | TGI (RXF 393 renal): 3.34 µM | GI50 (SF-268 CNS): 1.76 µM | TGI (SF-268 CNS): 3.28 µM | GI50 (SF-295 CNS): 1.71 µM | TGI (SF-295 CNS): 3.1 µM | GI50 (SF-539 CNS): 1.73 µM | TGI (SF-539 CNS): 3.17 µM | GI50 (SK-MEL-28 melanoma): 1.75 µM | TGI (SK-MEL-28 melanoma): 3.27 µM | GI50 (SK-MEL-5 melanoma): 1.79 µM | TGI (SK-MEL-5 melanoma): 3.26 µM | GI50 (SK-OV-3 ovarian): 1.7 µM | TGI (SK-OV-3 ovarian): 3.23 µM | GI50 (SN12C renal): 1.83 µM | TGI (SN12C renal): 3.68 µM | GI50 (SNB-75 CNS): 1.55 µM | TGI (SNB-75 CNS): 2.88 µM | GI50 (SW-620 colon): 0.43 µM | TGI (SW-620 colon): 1.7 µM | GI50 (TK-10 renal): 1.89 µM | TGI (TK-10 renal): 3.54 µM | GI50 (UACC-257 melanoma): 1.8 µM | TGI (UACC-257 melanoma): 3.51 µM | GI50 (UACC-62 melanoma): 1.81 µM | TGI (UACC-62 melanoma): 3.38 µM | GI50 (UO-31 renal): 1.64 µM | TGI (UO-31 renal): 3.08 µM

COc1ccc(Cn2nc(-c3cc(OC)c(OC)c(OC)c3)c3c2CCc2cnoc2-3)cc1OC
GI50 (786-0 renal): 6.34 µM | TGI (786-0 renal): > 100 µM | GI50 (A498 renal): 2 µM | TGI (A498 renal): 9.8 µM | GI50 (A549 NSCLC): 6.27 µM | TGI (A549 NSCLC): > 100 µM | GI50 (ACHN renal): 6.12 µM | TGI (ACHN renal): > 100 µM | GI50 (BT-549 breast): 5.62 µM | TGI (BT-549 breast): > 100 µM | GI50 (CCRF-CEM leukemia): 3.17 µM | TGI (CCRF-CEM leukemia): > 100 µM | GI50 (COLO 205 colon): 4.68 µM | TGI (COLO 205 colon): 23.4 µM | GI50 (DU-145 prostate): 13.2 µM | TGI (DU-145 prostate): > 100 µM | GI50 (HCC-2998 colon): 5.85 µM | TGI (HCC-2998 colon): > 100 µM | GI50 (HCT-116 colon): 3.63 µM | TGI (HCT-116 colon): 44 µM | GI50 (HCT-15 colon): 4.98 µM | TGI (HCT-15 colon): > 100 µM | GI50 (HL-60(TB) leukemia): 0.113 µM | TGI (HL-60(TB) leukemia): 2.28 µM | GI50 (HOP-62 NSCLC): 6.35 µM | TGI (HOP-62 NSCLC): 82.7 µM | GI50 (HS 578T breast): 2.22 µM | TGI (HS 578T breast): 15.2 µM | GI50 (HT29 colon): 3.8 µM | TGI (HT29 colon): > 100 µM | GI50 (IGROV1 ovarian): 7.28 µM | TGI (IGROV1 ovarian): > 100 µM | GI50 (KM12 colon): 3.89 µM | TGI (KM12 colon): 37.6 µM | GI50 (LOX IMVI melanoma): 3.02 µM | TGI (LOX IMVI melanoma): > 100 µM | GI50 (M14 melanoma): 4.08 µM | TGI (M14 melanoma): 47.4 µM | GI50 (MALME-3M melanoma): 14.8 µM | TGI (MALME-3M melanoma): > 100 µM | GI50 (MCF7 breast): 3.45 µM | TGI (MCF7 breast): 18.3 µM | GI50 (MDA-MB-231 breast): 8 µM | TGI (MDA-MB-231 breast): > 100 µM | GI50 (MOLT-4 leukemia): 3.76 µM | TGI (MOLT-4 leukemia): > 100 µM | GI50 (NCI-H226 lung): 6.85 µM | TGI (NCI-H226 lung): 56.1 µM | GI50 (NCI-H23 lung): 3.43 µM | TGI (NCI-H23 lung): 64 µM | GI50 (NCI-H460 lung): 3.28 µM | TGI (NCI-H460 lung): > 100 µM | GI50 (NCI-H522 lung): 3.17 µM | TGI (NCI-H522 lung): > 100 µM | GI50 (NCI/ADR-RES ovarian): 3.02 µM | TGI (NCI/ADR-RES ovarian): 21.5 µM | GI50 (OVCAR-3 ovarian): 3.29 µM | TGI (OVCAR-3 ovarian): 9.61 µM | GI50 (OVCAR-4 ovarian): 4.96 µM | TGI (OVCAR-4 ovarian): 83.9 µM | GI50 (OVCAR-5 ovarian): 26.6 µM | TGI (OVCAR-5 ovarian): > 100 µM | GI50 (OVCAR-8 ovarian): 19.6 µM | TGI (OVCAR-8 ovarian): > 100 µM | GI50 (PC-3 prostate): 3.62 µM | TGI (PC-3 prostate): 65.3 µM | GI50 (RPMI-8226 leukemia): 2.69 µM | TGI (RPMI-8226 leukemia): 23 µM | GI50 (RXF 393 renal): 1.63 µM | TGI (RXF 393 renal): 9.29 µM | GI50 (SF-268 CNS): 5.41 µM | TGI (SF-268 CNS): > 100 µM | GI50 (SF-539 CNS): 3.11 µM | TGI (SF-539 CNS): 36.1 µM | GI50 (SK-MEL-2 melanoma): 6.06 µM | TGI (SK-MEL-2 melanoma): > 100 µM | GI50 (SK-MEL-28 melanoma): 10.3 µM | TGI (SK-MEL-28 melanoma): > 100 µM | GI50 (SK-MEL-5 melanoma): 2.78 µM | TGI (SK-MEL-5 melanoma): 12 µM | GI50 (SK-OV-3 ovarian): 4.36 µM | TGI (SK-OV-3 ovarian): 33 µM | GI50 (SN12C renal): 5.25 µM | TGI (SN12C renal): > 100 µM | GI50 (SNB-19 CNS): 7.99 µM | TGI (SNB-19 CNS): > 100 µM | GI50 (SNB-75 CNS): 1.39 µM | TGI (SNB-75 CNS): 5.64 µM | GI50 (SR leukemia): 2.67 µM | TGI (SR leukemia): > 100 µM | GI50 (SW-620 colon): 3.98 µM | TGI (SW-620 colon): > 100 µM | GI50 (T-47D breast): 4.16 µM | TGI (T-47D breast): 39.9 µM | GI50 (TK-10 renal): 10.1 µM | TGI (TK-10 renal): > 100 µM | GI50 (U251 CNS): 4.97 µM | TGI (U251 CNS): > 100 µM | GI50 (UACC-257 melanoma): 34.6 µM | TGI (UACC-257 melanoma): > 100 µM | GI50 (UACC-62 melanoma): 3.78 µM | TGI (UACC-62 melanoma): 56.5 µM | GI50 (UO-31 renal): 4.17 µM | TGI (UO-31 renal): > 100 µM

O=C1C2C(C(=O)N1c1ccc(OCc3ccccc3)cc1)C1c3ccccc3C2C2CCCCN21 (stereo not given)
GI50 (COLO 205 colon): 73.3 µM | GI50 (HT29 colon): 79.7 µM | GI50 (K-562 leukemia): 59.8 µM | GI50 (NCI-H522 lung): 53.5 µM | GI50 (RPMI-8226 leukemia): 64 µM | GI50 (SNB-19 CNS): 47.6 µM | GI50 (SNB-75 CNS): 61.4 µM | GI50 (U251 CNS): 41.5 µM | GI50 (UO-31 renal): 32.7 µM
